Experimental findings from patent publication US10030004B2, “Compounds and methods of use” (Medivation Technologies LLC, priority 2014, dated 2018) are described below.

Data set [1] in a line: Pharmacokinetics and bioavailability in male mice after a single dose. In kind it is in vivo. Particulars: for AUC(0-t) / Cmax / Tmax / bioavailability / clearance / half-life: mouse, plasma; for half-life: read-out: Terminal t1/2 (converted).
The nature of data set [2]: Plasma and brain concentrations at 0.5 and 1 h in mice. The data set is classed as in vivo. Particulars: for concentration at 0.5 h / concentration at 1 h: male, mouse.

Like-named read-outs stand apart in the source and are kept apart here.

As usually defined, the AUC(0-t) is exposure summed from dosing to a finite time, without extrapolation to infinity. A lower AUC(0-t) goes with less exposure. The term Cmax denotes the highest concentration seen after dosing. What is called Tmax is the time from dosing to the highest level. In general, bioavailability refers to dose-corrected exposure relative to a reference, in per cent. Higher therefore signals good availability. Consider `CC(C)c1cnc(-c2cc(Cl)ccc2F)cc1Nc1ccncc1C(=O)NC[C@H](C)O` (single isomer, unassigned) [2a], for which, in data set [1] (intravenous, 2 mg/kg), the V is on record as 4.14 L/kg. In addition, the exposure AUC(0-t) in data set [1] (intravenous, 2 mg/kg) is 1.19 µM·h; in data set [1] (oral, 10 mg/kg) it was 5.25 µM·h. Also, the Cmax in data set [1] (intravenous, 2 mg/kg) came to 544 nM; in data set [1] (oral, 10 mg/kg), 1570 nM. The Tmax in data set [1] (oral, 10 mg/kg) came to 0.5 h. In data set [1] (oral, 10 mg/kg), this molecule yielded a bioavailability of 88%. The concentration at 0.5 h in data set [2] (brain, IV (2 mg/kg), 0.5 h, read-out: Brain concentration) stood at 73.2 ng/mL; in data set [2] (brain, PO (10 mg/kg), 0.5 h, read-out: Brain concentration), 202 ng/mL; in data set [2] (plasma, IV (2 mg/kg), 0.5 h, read-out: Plasma concentration), 310 ng/mL; in data set [2] (plasma, PO (10 mg/kg), 0.5 h, read-out: Plasma concentration) it was 1570 ng/mL. Besides, the concentration at 1 h in data set [2] (brain, IV (2 mg/kg), 1 h, read-out: Brain concentration) amounted to 82.4 ng/mL; in data set [2] (brain, PO (10 mg/kg), 1 h, read-out: Brain concentration), 114 ng/mL; in data set [2] (plasma, IV (2 mg/kg), 1 h, read-out: Plasma concentration) it was 366 ng/mL; in data set [2] (plasma, PO (10 mg/kg), 1 h, read-out: Plasma concentration) it was 905 ng/mL.
Broadly, the clearance is the volume of plasma or blood freed of the substance per unit of time. A higher clearance goes with a high capacity for elimination. Consider `CCc1cnc(-c2cc(Cl)ccc2F)cc1Nc1ccncc1C(=O)NC[C@H](C)O` (single isomer, unassigned) [11a], for which, in data set [1] (intravenous, 2 mg/kg), the exposure AUC(0-t) stood at 3.15 µM·h, the highest level (Cmax) was 3610 nM, the clearance was 24.7 mL/min/kg and the half-life is 1.02 h. For the same molecule, in data set [1] (oral, 10 mg/kg), the AUC(0-t) came to 9.79 µM·h, the maximum concentration (Cmax) turned out to be 3480 nM, the time to peak (Tmax) amounted to 0.25 h and the bioavailability is 62.2%. Besides, the half-life in data set [1] (oral, 10 mg/kg) is 1.65 h.
In data set [1] (intravenous, 2 mg/kg), `CC(C)c1cnc(-c2cc(Cl)ccc2F)cc1Nc1ncncc1C(=O)NC[C@H](C)O` (single isomer, unassigned) [12a] had a V of 2.80 L/kg, an AUC(0-t) of 3.69 µM·h, a maximum concentration (Cmax) of 2150 nM and a clearance of 19.8 mL/min/kg. Also, in data set [1] (intravenous, 2 mg/kg), the half-life was 1.63 h. For the same molecule, in data set [1] (oral, 10 mg/kg), the exposure AUC(0-t) is 14.5 µM·h, the concentration peaked (Cmax) at 4280 nM, the Tmax came to 0.5 h and the bioavailability worked out at 78.3%. For the same molecule, the half-life in data set [1] (oral, 10 mg/kg) is 1.72 h.
Take `CC(=O)NCCNC(=O)c1cnccc1Nc1cc(-c2cc(Cl)ccc2F)ncc1C(C)C` [compound 14, N-(2-acetamidoethyl)-4-[[2-(5-chloro-2-fluoro-phenyl)-5-isopropyl-4-pyridyl]amino]pyridine-3-carboxamide]: in data set [1] (intravenous, 2 mg/kg), the V is given as 3.86 L/kg, the exposure AUC(0-t) is 1.57 µM·h and the highest concentration (Cmax) is 3010 nM. For the same molecule, in data set [1] (oral, 10 mg/kg), the AUC(0-t) amounted to 2.54 µM·h, the concentration peaked (Cmax) at 1880 nM, the Tmax worked out at 0.5 h and the bioavailability is 32.5%.
In the case of `CC(C)c1cnc(-c2cc(Cl)ccc2F)cc1Nc1ccncc1C(=O)NCCN` [compound 19, N-(2-aminoethyl)-4-[[2-(5-chloro-2-fluoro-phenyl)-5-isopropyl-4-pyridyl]amino]pyridine-3-carboxamide], the V in data set [1] (intravenous, 2 mg/kg) turned out to be 21.1 L/kg. Also, the AUC(0-t) in data set [1] (intravenous, 2 mg/kg) amounted to 1.19 µM·h; in data set [1] (oral, 10 mg/kg), 0.927 µM·h. In addition, the Cmax was 520 nM in data set [1] (intravenous, 2 mg/kg) and 198 nM in data set [1] (oral, 10 mg/kg). For the same molecule, the Tmax in data set [1] (oral, 10 mg/kg) was 1 h. The molecule also yielded a bioavailability in data set [1] (oral, 10 mg/kg) of 15.5%. Further, the “Brain Concentration” value in data set [2] (PO, 0.5 h) is reported as “BLQ”; in data set [2] (PO, 1 h), “BLQ”. Also, the concentration at 0.5 h in data set [2] (brain, 2 mg/kg, IV, 0.5 h, read-out: Brain Concentration) was 4 nM; in data set [2] (plasma, 2 mg/kg, IV, 0.5 h, read-out: Plasma Concentration), 280 nM; in data set [2] (plasma, 10 mg/kg, PO, 0.5 h, read-out: Plasma Concentration), 164 nM. Besides, the concentration at 1 h in data set [2] (brain, 2 mg/kg, IV, 1 h, read-out: Brain Concentration) is 3 nM; in data set [2] (plasma, 2 mg/kg, IV, 1 h, read-out: Plasma Concentration) it was 183 nM; in data set [2] (plasma, 10 mg/kg, PO, 1 h, read-out: Plasma Concentration), 198 nM.
